For 13 compounds, inhibition of growth, pest or weed control and melting point results are on record in patent US11178869B2, “Microbiocidal quinoline (thio)carboxamide derivatives” (priority 2017, dated 2021).

In data set [1] the test system is Botryotinia fuckeliana (Botrytis cinerea). Nature of the data set: Botryotinia fuckeliana (Botrytis cinerea) / liquid culture (gray mould). The class given is cell-based. The conditions noted are these: 72 h, 200 ppm, compared to untreated control, growth inhibition photometrically 3-4 days after application, read-out: disease control.
In data set [2] the test system is Fusarium culmorum. The data set can be described thus: microbe, parasite or virus in culture. The class given is cell-based. The conditions noted are these: read-out: disease control.
For data set [3], the system named is Monographella nivalis (Microdochium nivale). The data set can be described thus: Monographella nivalis (Microdochium nivale) / liquid culture (foot rot cereals). The class given is cell-based. The conditions noted are these: 200 ppm, compared to untreated control, growth inhibition photometrically 4-5 days after application, read-out: disease control.
The subject of data set [4] is Magnaporthe grisea (Pyricularia oryzae). Nature of the data set: microbe, parasite or virus in culture. The conditions noted are these: read-out: control of Magnaporthe grisea. The class given is cell-based.
Data set [5] concerns Pyrenophora teres. The data set can be described thus: Pyrenophora teres / barley / leaf disc preventative (net blotch). The class given is in vivo, Pyrenophora teres on barley leaf segments cv. Hasso. The conditions noted are these: foliar, barley leaf segments, compared to untreated control, 5-7 days after application.
The test system of data set [6] is Glomerella lagenarium (Colletotrichum lagenarium). Nature of the data set: Glomerella lagenarium (Colletotrichum lagenarium) / liquid culture (anthracnose). The class given is cell-based. The settings on record: Colletotrichum orbiculare; 200 ppm; compared to untreated control; growth inhibition photometrically 3-4 days after application; read-out: disease control.

For data set [7], the system named is Gaeumannomyces graminis. Nature of the data set: Gaeumannomyces graminis / liquid culture (take-all of cereals). The class given is cell-based. The conditions noted are these: compared to untreated control, 4-5 days after application.
In data set [8] the test system is Sclerotinia sclerotiorum. The data set can be described thus: Sclerotinia sclerotiorum / liquid culture (cottony rot). The conditions noted are these: read-out: control of Sclerotinia sclerotiorum.
Description: Sclerotinia sclerotiorum/Liquid Culture (Cottony Rot)
Mycelia fragments of a newly grown liquid culture of the fungus are directly mixed into nutrient broth (Vogels broth). After placing a (DMSO) solution of test compound into a microtiter plate (96-well format) the nutrient broth containing the fungal material is added. The test plates are incubated at 24° C. and the inhibition of growth is determined photometrically 3-4 days after application.
Data set [9] deals with Fusarium culmorum. The data set can be described thus: whole plant or invertebrate. The class given is in vivo, Fusarium culmorum on wheat spikelets cv. Monsun. The conditions noted are these: in Triticum aestivum, 144 h, read-out: control of Fusarium culmorum.

As to `Cc1cccc2cc(C(=O)NC(C#Cc3ccccc3)C(C)C)cnc12` (centres unmarked) [Compound F-1, N-(1-isopropyl-3-phenyl-prop-2-ynyl)-8-methyl-quinoline-3-carboxamide], the inhibition of growth at 200 ppm in [1], in data set [2] and in data set [3] was at least 80% each time. The inhibition of growth at 20 ppm in [4] is at least 80%. Also, the pest or weed control at 200 ppm in [5] is at least 80%.
On to `CC(C)C(C#Cc1ccccc1)NC(=O)c1cnc2c(Cl)cccc2c1` (centres unmarked) [Compound F-2, 8-chloro-N-(1-isopropyl-3-phenyl-prop-2-ynyl)quinoline-3-carboxamide], for which the melting point is 168 to 170 °C. Also, the inhibition of growth at 200 ppm in data set [2] was at least 80%. In data set [3], the inhibition of growth at 200 ppm is at least 80%. For the same compound, the pest or weed control at 200 ppm in data set [5] is at least 80%.
As for `CC(C)(C)C(C#Cc1ccccc1)NC(=O)c1cnc2c(F)cccc2c1` (centres unmarked) [Compound F-5, N-(1-tert-butyl-3-phenyl-prop-2-ynyl)-8-fluoro-quinoline-3-carboxamide], the melting point fell in the range of 179 to 181 °C. Besides, the inhibition of growth at 200 ppm in [1] is at least 80%. Further, the inhibition of growth at 200 ppm in [2] is at least 80%. In [6], the inhibition of growth at 200 ppm is at least 80%. Besides, the inhibition of growth at 200 ppm in data set [3] was at least 80%. In data set [4], the inhibition of growth at 20 ppm is at least 80%. The inhibition of growth at 20 ppm in [7] was at least 80%. Besides, in data set [8], the inhibition of growth at 20 ppm is at least 80%.
`CC(C)CC(C)(C#Cc1ccccc1)NC(=O)c1cnc2c(F)cccc2c1` (centres unmarked) [Compound F-7, N-[1,3-dimethyl-1-(2-phenylethynyl)butyl]-8-fluoro-quinoline-3-carboxamide] yielded a melting point of 138 to 141 °C. Moreover, the inhibition of growth at 200 ppm in [1] is at least 80%. For the same compound, the inhibition of growth at 200 ppm in [2] is at least 80%. Moreover, the inhibition of growth at 200 ppm in data set [6] is at least 80%. Further, the inhibition of growth at 200 ppm in [3] is at least 80%. Also, the inhibition of growth at 20 ppm in [4] is at least 80%. In addition, the pest or weed control at 200 ppm in data set [9] is at least 80%. The same compound registered an inhibition of growth at 20 ppm in data set [7] of at least 80%. Also, the inhibition of growth at 20 ppm in [8] was at least 80%.
`CCC(C)(C#Cc1ccccc1)NC(=O)c1cnc2c(C#N)cccc2c1` (centres unmarked) [Compound F-10, 8-cyano-N-(1-ethyl-1-methyl-3-phenyl-prop-2-ynyl)quinoline-3-carboxamide]: the melting point lay in the range of 172 to 174 °C. Moreover, in data set [1], the inhibition of growth at 200 ppm was at least 80%. Further, the inhibition of growth at 200 ppm in data set [2] is at least 80%. In addition, in [6], the inhibition of growth at 200 ppm is at least 80%. Moreover, the inhibition of growth at 200 ppm in data set [3] is at least 80%. In addition, the inhibition of growth at 20 ppm in data set [4] is at least 80%. Further, the pest or weed control at 200 ppm in data set [9] was at least 80%. Moreover, the inhibition of growth at 20 ppm in data set [7] was at least 80%. Besides, in data set [8], the inhibition of growth at 20 ppm is at least 80%.
Compound `CCC(C)(C#Cc1ccccc1)NC(=O)c1cnc2c(Cl)cccc2c1` (centres unmarked) [Compound F-11, 8-chloro-N-(1-ethyl-1-methyl-3-phenyl-prop-2-ynyl)quinoline-3-carboxamide] showed a melting point of 161 to 162 °C. For the same compound, the inhibition of growth at 200 ppm in data set [1] is at least 80%. Besides, the inhibition of growth at 200 ppm in data set [2] is at least 80%. Besides, in [6], the inhibition of growth at 200 ppm was at least 80%. Moreover, the inhibition of growth at 200 ppm in data set [3] is at least 80%. The inhibition of growth at 20 ppm in data set [4] was at least 80%. In addition, the pest or weed control at 200 ppm in [9] is at least 80%. Also, the pest or weed control at 200 ppm in [5] is at least 80%. Moreover, in data set [8], the inhibition of growth at 20 ppm was at least 80%.
`CCC(C)(C#Cc1ccccc1)NC(=O)c1cnc2c(F)cccc2c1` (centres unmarked) [Compound F-17, N-(1-ethyl-1-methyl-3-phenyl-prop-2-ynyl)-8-fluoro-quinoline-3-carboxamide]: the melting point was in the range of 129 to 132 °C. Moreover, the inhibition of growth at 200 ppm in [1] was at least 80%. Moreover, in [2], the inhibition of growth at 200 ppm was at least 80%. The inhibition of growth at 200 ppm in [6] was at least 80%. Besides, the inhibition of growth at 200 ppm in data set [3] was at least 80%. The inhibition of growth at 20 ppm in data set [4] was at least 80%. Moreover, the pest or weed control at 200 ppm in [9] is at least 80%. Besides, the pest or weed control at 200 ppm in data set [5] was at least 80%.
For `Cc1ccc(C#CC(C)(C)NC(=O)c2cnc3c(F)cccc3c2)cc1` [Compound F-21, N-[1,1-dimethyl-3-(p-tolyl)prop-2-ynyl]-8-fluoro-quinoline-3-carboxamide], the inhibition of growth at 200 ppm in [1], in data set [2], in [6] and in [3] was at least 80% each time. In data set [5], this compound showed a pest or weed control at 200 ppm of at least 80%.
For `COc1cccc(C#CC(C)(C)NC(=O)c2cnc3c(F)cccc3c2)c1` [Compound F-29, 8-fluoro-N-[3-(3-methoxyphenyl)-1,1-dimethyl-prop-2-ynyl]quinoline-3-carboxamide], the inhibition of growth at 200 ppm in data set [1], in data set [2], in data set [6] and in data set [3] was at least 80% in each case. In addition, the pest or weed control at 200 ppm in data set [9] and in data set [5] was at least 80% throughout.
Take `Cc1ccc(C#CC(C)(C)NC(=O)c2cnc3c(F)cccc3c2)s1` [Compound F-35, N-[1,1-dimethyl-3-(5-methyl-2-thienyl)prop-2-ynyl]-8-fluoro-quinoline-3-carboxamide]: the inhibition of growth at 200 ppm in data set [1], in data set [2] and in data set [3] was at least 80% in each case. In data set [5], this compound displayed a pest or weed control at 200 ppm of at least 80%.
In turn, `CC(C)(C#Cc1ccccc1)NC(=O)c1cnc2c(F)cccc2c1` [Compound F-55, N-(1,1-dimethyl-3-phenyl-prop-2-ynyl)-8-fluoro-quinoline-3-carboxamide] had a melting point of 151 to 155 °C. Also, in [1], the inhibition of growth at 200 ppm is at least 80%. In addition, the inhibition of growth at 200 ppm in [2] was at least 80%. The inhibition of growth at 200 ppm in data set [6] was at least 80%. Also, the inhibition of growth at 200 ppm in [3] is at least 80%. The pest or weed control at 200 ppm in data set [5] is at least 80%. Also, the inhibition of growth at 20 ppm in data set [7] is at least 80%.
For `CC(C)C[C@@H](C#Cc1ccccc1)NC(=O)c1cnc2c(F)cccc2c1` [Compound G-4, 8-fluoro-N-[(1S)-3-methyl-1-(2-phenylethynyl)butyl]quinoline-3-carboxamide], the inhibition of growth at 200 ppm in data set [1], in [2] and in [6] was at least 80% throughout. Besides, the inhibition of growth at 20 ppm in data set [4] and in [7] was at least 80% throughout. For the same compound, the pest or weed control at 200 ppm in [9] and in data set [5] was at least 80% throughout.
Take `CC(C)C[C@@](C)(C#Cc1ccccc1)NC(=O)c1cnc2c(F)cccc2c1` [Compound G-5, N-[(1S)-1,3-dimethyl-1-(2-phenylethynyl)butyl]-8-fluoro-quinoline-3-carboxamide]: the melting point lay within 124 to 127 °C. For the same compound, the inhibition of growth at 200 ppm in data set [1] is at least 80%. Further, the inhibition of growth at 200 ppm in [2] was at least 80%. Moreover, the inhibition of growth at 200 ppm in data set [6] is at least 80%. Moreover, the inhibition of growth at 200 ppm in [3] was at least 80%. Moreover, in data set [4], the inhibition of growth at 20 ppm is at least 80%. The same compound gave an inhibition of growth at 20 ppm in [7] of at least 80%. For the same compound, the inhibition of growth at 20 ppm in data set [8] is at least 80%.
